Key:
Raji = test: Cytotoxicity against Raji cells assessed as cell viability at 32 nmol relative to control; assay type: functional, Homo sapiens
Human gammaherpesvirus 4 [1] = test: Inhibition of TPA-induced Epstein-Barr virus early antigen activation in Raji cells at 32 nmol relative to control; values are per cent of control
Human gammaherpesvirus 4 [2] = test: Inhibition of TPA-induced Epstein-Barr virus early antigen activation in Raji cells at 16 nmol relative to control; values are per cent of control
Human gammaherpesvirus 4 [3] = test: Inhibition of TPA-induced Epstein-Barr virus early antigen activation in Raji cells at 3.2 nmol relative to control; values are per cent of control
Human gammaherpesvirus 4 [4] = test: Inhibition of TPA-induced Epstein-Barr virus early antigen activation in Raji cells at 0.32 nmol relative to control; values are per cent of control

Compound | Activity (Raji) [%] | level, % of control (Human gammaherpesvirus 4 [1]) [%] | level, % of control (Human gammaherpesvirus 4 [2]) [%] | level, % of control (Human gammaherpesvirus 4 [3]) [%] | level, % of control (Human gammaherpesvirus 4 [4]) [%]
Cc1nc2cc(N3C(=O)CSC3c3cccc4ccccc34)ccc2[nH]1 (stereo not given) | 60 | 17.1 | 61 | 85.1 | 100
Cc1nc2cc([N+](=O)[O-])ccc2n1Cc1ccccc1 | 60 | 18.3 | 62.4 | 87.4 | 100
Cc1nc2cc(N3C(=O)CSC3c3ccc4c(c3)OCO4)ccc2[nH]1 (stereo not given) | 60 | 21.6 | 65 | 88.4 | 100
Cc1nc2cc(N3C(=O)CSC3c3cccs3)ccc2[nH]1 (stereo not given) | 60 | 22.1 | 66.5 | 88.9 | 100
Cc1nc2cc(/N=C\c3ccc(C)o3)ccc2[nH]1 | 60 | 18 | 62 | 86.2 | 100
Cc1nc2cc(/N=C\c3ccc4c(c3)OCO4)ccc2[nH]1 | 60 | 15.1 | 60.2 | 85.4 | 100
CNC(=S)Nc1ccc2c(c1)nc(C)n2Cc1ccccc1 | 60 | 13.2 | 58.1 | 80 | 100
CCNC(=S)Nc1ccc2c(c1)nc(C)n2Cc1ccccc1 | 60 | 14 | 59.6 | 81.2 | 100
Cc1nc2cc(NC(=S)NC(=O)c3ccccc3)ccc2n1Cc1ccccc1 | 60 | 17.8 | 60.6 | 82 | 100
COc1ccc(NC(=S)Nc2ccc3c(c2)nc(C)n3Cc2ccccc2)cc1 | 60 | 13.5 | 53.1 | 78.3 | 100
CCN1C(=O)CS/C1=N/c1ccc2c(c1)nc(C)n2Cc1ccccc1 | 60 | 18.3 | 54.2 | 81.1 | 100
Cc1nc2cc(/N=C\c3c[nH]c4ccccc34)ccc2[nH]1 | 60 | 18.4 | 62.1 | 86.1 | 100
Cc1nc2cc(/N=C\c3cccc4ccccc34)ccc2[nH]1 | 60 | 20.6 | 65.8 | 89.6 | 100
Cc1nc2cc(/N=C3/SCC(=O)N3C(=O)c3ccccc3)ccc2n1Cc1ccccc1 | 60 | 12.3 | 52.5 | 82.5 | 100
COc1ccc(N2C(=O)CS/C2=N/c2ccc3c(c2)nc(C)n3Cc2ccccc2)cc1 | 60 | 13.2 | 53 | 78 | 100
Cc1nc2ccccc2[nH]1 | 60 | 19.6 | 63.6 | 88.3 | 100
Cc1nc2cc([N+](=O)[O-])ccc2[nH]1 | 60 | 18.4 | 62.5 | 88 | 100
Cc1ccc(C2SCC(=O)N2c2ccc3[nH]c(C)nc3c2)cc1 (stereo not given) | 60 | 23.1 | 66.1 | 88.9 | 100
Cc1nc2cc(/N=C3/SCC(=O)N3C)ccc2n1Cc1ccccc1 | 60 | 20.7 | 61.2 | 83.4 | 100
Cc1nc2cc(N3C(=O)CSC3c3ccc(C)o3)ccc2[nH]1 (stereo not given) | 60 | 20.9 | 65.1 | 87.7 | 100
Cc1nc2cc(N3C(=O)CSC3c3c[nH]c4ccccc34)ccc2[nH]1 (stereo not given) | 60 | 21.8 | 65.9 | 87.1 | 100
Cc1nc2cc(/N=C3/SCC(=O)N3c3ccccc3)ccc2n1Cc1ccccc1 | 60 | 19.4 | 61 | 82.5 | 100
Cc1nc2cc(NC(=S)Nc3ccccc3)ccc2n1Cc1ccccc1 | 60 | 15.3 | 60.2 | 83.1 | 100
Cc1ccc(/C=N\c2ccc3[nH]c(C)nc3c2)cc1 | 60 | 19.3 | 64.5 | 89.1 | 100
Cc1nc2cc(/N=C\c3cccs3)ccc2[nH]1 | 60 | 22 | 65.5 | 89.1 | 100
Cc1nc2cc(N)ccc2[nH]1.Cl | 60 | 20.3 | 64.3 | 88.9 | 100
Cc1nc2cc(N)ccc2n1Cc1ccccc1.Cl | 60 | 18.5 | 62.2 | 86.3 | 100

Reference: ChEMBL document CHEMBL1143757, “Synthesis and inhibitory activity of new benzimidazole derivatives against Burkitt's lymphoma promotion” (2007)
